Here are results for three compounds from patent US6710049B2, “Azole compounds as anti-fungal agents” (Ranbaxy Laboratories Limited, priority 2000, dated 2004).

Structures are written as SMILES. Converted amounts (≈) assume the structure as drawn.

The term MIC50 denotes the lowest concentration that inhibits either 50% of growth or 50% of the strains tested, depending on the study. The MIC90 is the lowest concentration that inhibits either 90% of growth or 90% of the strains tested, depending on the study.

For data set [1], the system named is All Candida isolates. Kind of data set: Comparative in vitro MIC, isolate panel. The class given is cell-based. The text has this:
(§1) The in-vitro evaluation of the antifungal activity of the compounds can be performed by determining the minimum inhibitory concentration (MIC) as shown in Table 1 which is the concentration of the test compound in Rosewell Park Memorial Institute (RPMI) 1640 liquid medium buffered with 3-(Morpholino)propanesulphonic acid (MOPS) to pH 7, at which there is significant inhibition of the particular fungi. In practice the National Committee for Clinical Laboratory Standard (NCCLS) M27A document for Candida and Cryptococcus and M38P for Aspergillus was used to determine the MIC against yeast and filamentous fungi with suitable modifications for dermatophytes to other filamentous fungi. Three quality control strains were included each time the MIC were determined and readings recorded only when the Quality Control results fell into the acceptable range. After MIC results had been recorded, 100 μl from each of the well showing no growth was spread over Sabouraud Dextrose Agar (SDA) to determine the minimum fungicidal concentration (MFC) as shown in Table 2.
(§2) A comparative in vitro and in vivo biologically activity data of the compound of our invention, 2-{[1R,2R]-2-(2,4-Difluorophenyl)-2-hydroxy-1-methyl-3-(1H-1,2,4-triazole-1-yl)propyl}-4-[(2′,2′,3′,3′-tetrafluoropropoxyphenyl)-3-(2H,4H)-1,2,4-thiotriazolone (Compound No. 3) with 2-[(1R,2R)-2-(2,4-difluorophenyl)-2-hydroxy-1-methyl-3-(1H-1,2,4-triazol-1-yl)propyl]-4-(2′,2′,3′,3′-tetraflouropropoxyphenyl)-3(2H,4H)-1,2,4-triazolone (TAK 187) and standard antifungal pharmaceuticals is given below: […]

The test system of data set [2] is All Filamentous isolates. Kind of data set: Comparative in vitro MIC, isolate panel. The class given is cell-based.
Text: as §1, §2

Data set [3] concerns All fungal pathogens. Kind of data set: Comparative in vitro MIC, isolate panel. The class given is cell-based.
Text: as §1, §2

Data set [4] concerns Aspergillus fumigatus isolates. Kind of data set: Comparative in vitro MIC, isolate panel. The class given is cell-based.
Text: as §1, §2

Data set [5] relates to Fusarium spp. isolates. Kind of data set: Comparative in vitro MIC, isolate panel. In kind it is cell-based.
Text: as §1, §2

Data set [6] has as its system Penicillium spp. isolates. Kind of data set: Comparative in vitro MIC, isolate panel. In kind it is cell-based.
Text: as §1, §2

Data set [7] relates to Rhizoupus spp. isolates. Kind of data set: Comparative in vitro MIC, isolate panel. In kind it is cell-based.
Text: as §1, §2

The test system of data set [8] is T. mentagrophyte. Briefly: Activity against dermatophytes. The class given is cell-based. On the set-up: unit not given here.
Text: as §1, §2

Data set [9] deals with T. rubrum. Briefly: Activity against dermatophytes. The class given is cell-based. Further details: unit not given here.
Text: as §1, §2

The test system of data set [10] is Aspergillus fumigatous. Briefly: In vivo anti-fungal activity, ED50 in systemically infected mice. Further details: species or system Swiss albino mice. The settings on record: mice infected i.v. with Aspergillus fumigatous, dosing for five days. The method, then:
The in-vivo evaluation of the compound can be carried out at a series of dose levels by oral or I. V. injection to mice which are inoculated I.V. with the minimum lethal dose of Candida albicans, Cryptococcus neoformans or Aspergillus fumigatus by the tail vein. Activity is based on the survival of a treated group of mice after the death of an untreated group of mice. For Aspergillus and Cryptococcus infections, target organs were cultured after treatment to document the number of mice cured of the infection for further assessment of activity.
Method: Briefly, Swiss albino mice weighing 20±2 G were injected intravenously (tail vein) with sufficient fungal cells to kill 100% of the untreated animals for Aspergillus fumigatous strain used. In all cases each group comprised of six mice. Five does levels, utilizing doubling dilution range, were employed per determination ranging from 25 to 1.56 mg/kg BW. Dosing was carried out for five days starting after 30 minutes of infection. […] Treated animals were monitored twice daily for 14 days post infection at which time the experiment was terminated and ED50 was calculated.

The subject of data set [11] is filamentous species of fungi. Briefly: Activity against filamentous fungi (statement in words). The class given is cell-based.
Text: as §1

For data set [12] the following is noted: serum drug concentration after several days of treatment 25 to 100 times above the MIC for C. neoformans; cited from earlier work.

As to `C[C@@H](n1ncn(-c2ccc(OCC(F)(F)C(F)F)cc2)c1=S)[C@](O)(Cn1cncn1)c1ccc(F)cc1F` [Compound No. 3], the MIC50 turned out to be 0.5 µg/mL (≈ 0.895 µM) in data set [1]; 0.25 µg/mL (≈ 0.448 µM) in [2]; 0.25 µg/mL (≈ 0.448 µM) in data set [3]; 0.125 µg/mL (≈ 0.224 µM) in data set [4]; 8 µg/mL (≈ 14.3 µM) in data set [5]; 2 µg/mL (≈ 3.58 µM) in data set [6]. The MIC50 in [7] was 0.125 µg/mL (≈ 0.224 µM). Moreover, the MIC90 was 1 µg/mL (≈ 1.79 µM) in [1]; 8 µg/mL (≈ 14.3 µM) in [2]; 2 µg/mL (≈ 3.58 µM) in [3]; 0.25 µg/mL (≈ 0.448 µM) in [4]; 8 µg/mL (≈ 14.3 µM) in data set [5]; 8 µg/mL (≈ 14.3 µM) in data set [6]. Moreover, the MIC90 in data set [7] amounted to 0.125 µg/mL (≈ 0.224 µM). The “MIC G.M.” value in data set [1] came out at 0.1 µg/mL (≈ 0.179 µM); in data set [2], 0.328 µg/mL (≈ 0.587 µM); in data set [3], 0.285 µg/mL (≈ 0.51 µM); in data set [4] it was 0.112 µg/mL (≈ 0.201 µM); in data set [5], 8 µg/mL (≈ 14.3 µM); in data set [6], 1.516 µg/mL (≈ 2.71 µM). In addition, in [7], the “MIC G.M.” value stood at 0.125 µg/mL (≈ 0.224 µM). The Activity against dermatophytes in data set [8] amounted to 0.016; in data set [9], 0.004. Also, the ED50 in data set [10] (Day 7 post infection) came to 2.33 mg/kg body weight; in data set [10] (Day 14 post infection) it was 6.25 mg/kg body weight. In data set [11], the “activity against clinically important filamentous species of fungi” value is “unexpectedly potent activity”. Further, the fungicidal character entry in data set [11] (b38: against some filamentous fungi) is given as “fungicidal”.

In the case of `CC[C@@H]([C@H](C)O)n1ncn(-c2ccc(N3CCN(c4ccc(OC[C@@H]5CO[C@@](Cn6cncn6)(c6ccc(F)cc6F)C5)cc4)CC3)cc2)c1=O` [SCH 56592], in data set [12], the “detectability in CSF” value is on record as “undetectable”.

For the compound `CN(C/C=C/C#CC(C)(C)C)Cc1cccc2ccccc12` [Terbina], the Activity against dermatophytes is 0.002 in data set [8] and 0.016 in [9].
